From patent US20230218654A1, “COMPOSITIONS AND METHODS FOR TREATING HYPERGLYCEMIA IN TYPE-2 DIABETES” (The Board of Regents of the university of Oklahoma, priority 2020, published 2023)
Entries after “also recorded” stand apart in the source; their conditions may differ.

Legend:
[1] = system: differentiated C2C12 myocytes; assay: Glucose uptake assay; type: cell-based; settings: 500 nM MLN4924 6 h, 100 nM insulin 1 hour
Protocol: Differentiated C2C12 myocytes were treated with MLN4924 (500 nM) and then stimulated with 100 nM insulin as indicated. Glucose uptake into the cells was measured. Glucose uptake into the cells was increased in the presence of MLN4924.Results are mean+/-SD of 5 replicates. “* ”, p less than 0.05, vs Vehicle-treated control.“#”, vs. insulin treated, p less than 0.05.
C2C12 myoblast cells were cultured in DMEM medium supplemented with 10% FBS. When cells grow to 60% confluency, differentiation into myocytes was induced by culturing cells in DMEM supplemented with 2% horse serum for 4-6 days. Cells were then serum starved overnight and treated with 500 nM MLN4924 or DMSO for 6 h and then stimulated with 100 nM insulin for 1 hour as indicated. Glucose uptake was measured with a Glucose uptake Glo^tm assay kit that was purchased from Promega (Madison, WI).

[2] = system: male C57BL6/J mice; assay: Plasma/serum insulin and c-peptide after acute neddylation inhibitor treatment; type: in vivo
Protocol: Male C57BL6/J mice on chow diet were treated with 45 mg/kg TAS4464 via subcutaneous injection at 9 am. Mice were then fasted for 6 hours and serum insulin was measured. Blood samples were collected at 0 min and 120 min and used for insulin measurement (n=4). Left-hand bars are controls. Right-hand bars are TAS4464 treatments.
Male C57BL6/J mice on Western diet were treated with 15 mg/kg TAS4464 via subcutaneous injection at 9 am. Mice were then fasted for 6 hours and serum c-peptide were measured (n=5).
Male C57BL6/J mice on chow diet were treated with 60 mg/kg MLN4924 via subcutaneous injection at 9 am. Mice were then fasted for 6 hours and serum c-peptide were measured (n=8)
Aspartate aminotransferase (AST) and alanine aminotransferase (ALT) assay kits were purchased from Pointe Scientific (Canton, MI). Free fatty acid assay kit was purchased from Biovision Inc. (Milpitas, CA). Insulin ELISA kit was purchased from Crystal Chem Inc. (Elk Grove Village, IL).
A hyperinsulinemic-euglycemic clamp study was conducted in which obese mice were treated with vehicle or MLN4924.

[3] = system: AML12 mouse hepatocytes; assay: Western blot of insulin signaling and cullin neddylation in AML12 cells; type: cell-based
Protocol: MLN4924 increases IRS protein and AKT activation in the presence of insulin. Mouse AML 12 hepatocytes were serum starved for 16 h. Cells were then pre-treated with MLN4924 for 1 h followed by 100 nM insulin stimulation for 4 h. Western blot was then performed to evaluate insulin signaling activation.
AML 12 cells were serum starved for 16 h. Cells were then pre-treated with 500 nM MLN4924 or vehicle (DMSO) for 1 h, followed by 100 µg/ml cycloheximide (CHX) and 100 nM insulin treatment.
AML12 cells were serum starved for 16 h. Cells were then pre-treated with 500 nM MLN4924 for 1 h followed by 100 nM insulin stimulation in time course.
FIG. 18A is a Western blot analysis showing that MLN4924 enhances hepatocyte insulin responsiveness (signaling) by delaying feedback IRS degradation. AML12 cells were serum starved for 16 h. Cells were then pre-treated with MLN4924 for 1 h followed by insulin stimulation for 4 h.
FIG. 18D is a Western blot analysis of insulin signaling in AML12 cells serum starved for 16 h, then pre-treated with 500 nM MLN4924 for 1 h followed by 100 nM insulin stimulation in time course.
FIG. 18E is a Western blot analysis of AML12 cells serum starved for 16 h then pre-treated with 500 nM MLN4924 or vehicle (DMSO) for 1 h, followed by 100 µg/ml cycloheximide (CHX) and 100 nM insulin treatment. Cells were collected at the indicated time for Western blotting.
FIG. 18F is a Western blot analysis of insulin signaling in AML12 cells serum starved for 16 h then pre-treated with 100 nM rapamycin and 500 nM MLN4924 as indicated for 1 h followed by additional 2 h incubation in the presence or absence of 100 nM insulin. Blots are representative of 2-4 independent experiments.
(§1) FIG. 20 is a Western blot analysis showing that MLN4924 enhances hepatocyte insulin responsiveness in cells treated with wortmannin by delaying feedback IRS degradation (related to FIG. 18A). AML12 cells were serum starved for 16 h then pre-treated with 1 µM wortmannin (Wort) and 500 nM MLN4924 as indicated for 1 h followed by additional 2 h incubation in the presence or absence of 100 nM insulin. Blots are representative of 2 independent experiments.
as §1, with “21” for “20”, “Torin 1” for “wortmannin”, “250 nM Torin1” for “1 µM wortmannin (Wort)”
MLN4924 and TAS4464 were purchased from MedChemExpress (MCE, Monmouth Junction, NJ). For cell treatment, MLN4924 and TAS4464 were dissolved in DMSO. Cells were serum starved overnight and then treated with MLN4924, TAS4464 and/or insulin as indicated. For injection in mice, MLN4924 and TAS4464 were first dissolved in DMSO, which was further suspended in 10% (2-hydroxypropyl)-β-cyclodextrin (Sigma, St. Louis, MO). The final solution contains 1% DMSO. The subcutaneous injection volume is 200 µl/mouse.
Protein lysates were prepared in RIPA buffer containing 1% SDS and protease inhibitors on ice for 1 h followed by brief sonication. After centrifugation, supernatant was used for SDS-PAGE and immunoblotting.
AML12 cells were a generous gift from Dr. Yanqiao Zhang (Northeast Ohio Medical University). AML12 cells were cultured in DMEM medium supplemented with a mixture of insulin-transferrin-selenium (#41400-045, ThermoFisher, Waltham, MA). For experiments, cells were cultured in serum free medium overnight before various treatments were initiated. The siGENOME SMARTpool siRNA and siControl were purchased from Dharmacon, Inc. (Lafayette, CO). The siRNA was transfected with Lipofectamine RNAiMAX reagent in a final concentration of 25 nM recommended by the manufacturer. […]

[4] = insulin stimulated, MLN4924 pre-treatment 1 h, insulin 4 h

NS(=O)(=O)OC[C@@H]1C[C@@H](n2ccc3c(N[C@H]4CCc5ccccc54)ncnc32)C[C@@H]1O [MLN4924, ((1S,2S,4R)-4-(4-((1S)-2,3-dihydro-1H-inden-1-ylamino)-7H-pyrrolo[2,3-d]pyrimidin-7-yl)-2-hydroxycyclopentyl) methyl sulfamate]
glucose uptake [1]: increased glucose uptake
plasma insulin ([2]; acute MLN4924 treatment): ~ 0.55 ng/ml
serum c-peptide ([2]; acute MLN4924 treatment): ~ 1.1 ng/ml
serum c-peptide concentration ([2]; chow diet, 60 mg/kg SQ at 9 am, 6 h fast): elevated serum c-peptide concentration
IRS protein in the presence of rapamycin ([3]; 500 nM MLN4924 + 100 nM rapamycin, 100 nM insulin): did not further increase IRS protein
IRS1 S307 phosphorylation ([3]; 500 nM, 100 nM insulin time course): also higher
insulin signaling desensitization (IRS1(Y612), AKT(S473)) ([3]; 500 nM, 1 h, then 100 nM insulin in time course): significantly delayed cellular insulin desensitization; also recorded: significantly delayed insulin signaling desensitization
insulin-induced IRS degradation ([3]; 500 nM, 100 µg/ml cycloheximide (CHX) and 100 nM insulin): significantly delayed
further MLN4924-mediated IRS enrichment and insulin sensitization ([3]; Cul1 or Cul3 knockdown cells, 500 nM): limited but not fully abolished
AKT S473 phosphorylation [3, 4]: increased AKT S473 phosphorylation
IR (Y1150) phosphorylation [3, 4]: but not IR (Y1150) phosphorylation
IRS1(Y612) phosphorylation [3, 4]: enhanced IRS1(Y612) phosphorylation
total IRS1 and IRS2 protein [3, 4]: dose-dependently increased total IRS1 and IRS2 protein
further IRS protein stabilization caused by MLN4924 ([3]; simultaneous knockdown of Cul1 and Cul3, 500 nM): largely abolished
